Marks after values point to notes of the source that are not given here.
Tests used:
Assay type in all cases: in vivo
[1] = system: lily beetles (Lilioceris lilii) larvae; assay: No-choice feeding test with larvae on brown lily leaves; conditions: for decrease of feeding of larvae / Percentage of the eaten relative mass of the leaf: larvae; for Percentage of the eaten relative mass of the leaf: no-choice test, approx. 100 μg/cm^2, ethanol control 65.3
Description: (§1) Antifeedant activity of betulin and betulonic acid was tested for lily beetles (Lilioceris lilii) with adults and larvae using leaves of brownlily plants. The test substances were dissolved in ethanol, and the leaves were treated to achieve a concentration of approx. 100 μg/cm^2 of the test substance. The experiment was carried out with adults as a selection test on a petridisc containing two leaves cut from a brown lily plant. One was treated with the test substance and the other treated with ethanol only. Two adult lilybeetles (Lilioceris lilii) were placed on the disc (male and female). The leaf mass eaten by the animals was counted daily during four days by weighing the leaves; simultaneously the number eggs laid by the adults were counted. 10 parallel tests were performed. The test with larvae was a no-choise-test, where either a treated or untreated leaf of brownlily and one beetle larvae was placed on each disc. 7 parallel tests were performed. Results from the palatability test and the prevention of egglaying test with adults and larvae of lily beetles (Lilioceris lilii) are shown in the following table 7. […] Betulonic acid decreased very efficiently egglaying of adults on the leaves (more than 90%). Betulonic acid decreased feeding of larvae efficiently (92%), with betulin this was not observed. In a no-choise situation the larvae died on the betulonic acid treated leaves, in other test treatments they grew normally.

[2] = system: lily beetles (Lilioceris lilii) adults; assay: Palatability and egg laying selection test with adults on brown lily leaves; conditions: for Percentage of the eaten relative mass of the leaf: selection test, approx. 100 μg/cm^2, four days, ethanol control 76.4
Description: as §1

[3] = system: Deroceras agreste (field snails) and Deroceras reticulatum (false field snails); assay: Effect on feeding behaviour of snails, half-treated leaf discs; conditions: for ranking of snail test results: 100 μg/cm^2; for Percentage of the leaf half treated with the test substance vs. total mass eaten: treated half of leaf disc; for Percentage of the leaf half treated with the test substance vs. total mass eaten / Percentage of the control vs. total mass eaten: 36 hours, 100 μg/cm^2 in acetone; for Percentage of the control vs. total mass eaten: untreated half of leaf disc
Description: Deroceras agreste (field snails) and Deroceras reticulatum (false field snails) snails with lengts of about 2 cm, collected from nature, were used in this antifeedant test. Cabbage and lettuce leaves cut into discs with diameters of 4 cm serving as feed plants were placed on petridishes. Half on each leaf disc was treated with the test substance, the other haft serving as the control. One snail was placed on each plate, and only tests where the snail ate the leaf were assayed. The results were recorded at 36 hours after test initiation. Acetone was used as control, while betulin, betulinic acid, betulonic acid and betulin 28-carboxymethoxy mentholester dissolved in aceton served as test substances. The leaves studied were treated with test substances used in amounts of 100 μg/cm^2, The results from this test are presented in the following table 5.

[4] = system: cabbage white, Mamestra brassicae larvae; assay: Antifeedant activity on cabbage leaf discs, no-choice test; conditions: for Leaf mass eaten by the larvae vs. control, Time/0 h: 100 μg/cm^2, 0 h after treatment; for Leaf mass eaten by the larvae vs. control, Time/21 h: 100 μg/cm^2, 21 h after treatment; for Leaf mass eaten by the larvae vs. control, Time/43 h: 100 μg/cm^2, 43 h after treatment; for Leaf mass eaten by the larvae vs. control, Time/73 h: 100 μg/cm^2, 73 h after treatment; for antifeedant activity on the larvae: FIG. 2, no-choice test
Description: Antifeedant activity for the […], Mamestra brassicae larvae was tested with six compounds derived from betulin. Discs cut from cabbage leaves, having a diameter of 5 cm, were placed on petridishes and treated with the test agents in an amount of 100 μg/cm^2. One small larva was introduced on each plate. Each agent was tested in 10 parallel studies. Cabbage leaf mass remaining on the dish was weighed after 0, 21, 43 and 73 hours after treatment (hat), and leaf mass eaten by the larva was calculated as percentage based on the control.

[5] = system: strawberry beetles (Galerucella tenella); assay: Palatability and egg laying selection test on strawberry leaves
Description: Antifeedant activity of betulin and betulonic acid was tested for strawberry beetles (Galerucella tenella) with adults and larvae using leaves of the plants. The test substances were dissolved in ethanol, and the leaves were treated to achieve a concentration of approx. 100 μg/cm^2 of the test substance. The experiment was carried out as a selection test on a petridisc containing a strawberry leaf having one half treated with the test substance and the other half treated with ethanol only. Two adult strawberry beetles (Galerucella tenella) were placed on the disc (male and female) or two larvae. The number of cavities eaten by the animals were counted daily during four days; simultaneously the number eggs laid by the adults were counted. Both the adults and the larvae had 10 tests. Results from the palatability test and the prevention of egg laying test with strawberry beetles (Galerucella tenella) are shown in the following table 6.

[6] = system: rapeseed beetles of the genus Phyllotreta spp.; assay: Antifeedant activity for rapeseed beetles on rapeseed seedlings (palatability test); conditions: for prevention of beetle feeding: 100 μg/cm^2, FIG. 1 and table 3; for % Surface area of the leaves eaten: 100 μg/cm^2 in rapeseed oil on rapeseed seedlings, after one week, rapeseed oil=100%
Description: Antifeedant activity for rapeseed beetles of the genus Phyllotreta spp. was tested using betulin 3,28-O-isostearylic diester (prepared as described in example 10), 3,28-diacetoxy betulin (prepared in example 15a), and betulin. Test compounds dissolved in 2 ml of rapeseed oil were sprayed on rapeseed seedlings at the cotyledon stage in an amount of 100 μg/cm^2. The plants thus treated were placed in an insect cage, followed by the introduction of the beetles after 24 hours. In the tests, 20 beetles were used per cage, each cage comprising 3 petridishes with seedlings, one control dish and two different test dishes, the number of the cages (=parallel tests) being 5. Pure rapeseed oil was used as the control. The beetles were allowed free access to all plants, and after one week, the test was stopped, the plants were examined, and feeding damages caused by the beetles were evaluated.
Number of the damaged leaves and the degree of damage were evaluated (% leaf surface area fed, palatability assessment).
Betulin 20,29-epoxy-3β,28-diacetate was used as the control compound, prepared as disclosed in J. Arg. Food Chem. 1995, 43, 2513-2516.

[7] = system: cabbage white, Mamestra brassicae larvae; assay: Antifeedant activity on cabbage leaf discs, no-choice test; conditions: FIG. 3, small larvae (12 to 19 mg), weight after 7 hours vs initial weight
[8] = adults, approx. 100 μg/cm^2, four days, ethanol = 100
[9] = larvae, approx. 100 μg/cm^2, four days, ethanol = 100

C=C(C)[C@@H]1CC[C@]2(C(=O)O)CC[C@]3(C)C(CCC4[C@@]5(C)CCC(=O)C(C)(C)C5CC[C@]43C)C12 (stereo partly drawn) [Betulonic acid, betulonic acid]
decrease of feeding of larvae [1]: 92% | Percentage of the eaten relative mass of the leaf [1]: 5.2% | fate of larvae on treated leaves ([1]; no-choice situation): died | decrease of egglaying of adults on the leaves [2]: more than 90% | prevention (decrease) of feeding [2]: approx. 78% | Percentage of the number or eggs laid by the beetles ([2]; approx. 100 μg/cm^2, ethanol control = 100): 8.7% | Percentage of the eaten relative mass of the leaf [2]: 17.0% | ranking of snail test results [3]: Best results | Percentage of the leaf half treated with the test substance vs. total mass eaten [3]: 25.8% | Percentage of the control vs. total mass eaten [3]: 74.2% | Leaf mass eaten by the larvae vs. control, Time/0 h [4]: 100% | Leaf mass eaten by the larvae vs. control, Time/21 h [4]: 94% | Leaf mass eaten by the larvae vs. control, Time/43 h [4]: 95% | Leaf mass eaten by the larvae vs. control, Time/73 h [4]: 86% | prevention of feeding ([5]; adults): approx. 41% | prevention of laying of eggs on the leaves ([5]; adults): more than 90% | Percentage of the number or eggs laid by the females on the leaves [5, 8]: 8.3% | Percentage of the relative number of eaten cavities [5, 8]: 58.7% | prevention of feeding ([5]; larvae): 82% | Percentage of the relative number of eaten cavities [5, 9]: 17.8%

C=C(C)[C@@H]1CC[C@]2(COC(=O)CO[C@H]3C[C@@H](C)CC[C@@H]3C(C)C)CC[C@]3(C)C(CCC4[C@@]5(C)CC[C@H](O)C(C)(C)C5CC[C@]43C)C12 (stereo partly drawn) [betulin 28-carboxymethoxy menthol ester, 28-carboxymethoxy mentholester of betulin]
ranking of snail test results [3]: Best results | Percentage of the leaf half treated with the test substance vs. total mass eaten [3]: 36.6% | Percentage of the control vs. total mass eaten [3]: 63.4% | Leaf mass eaten by the larvae vs. control, Time/0 h [4]: 100% | Leaf mass eaten by the larvae vs. control, Time/21 h [4]: 126* % | Leaf mass eaten by the larvae vs. control, Time/43 h [4]: 146* % | Leaf mass eaten by the larvae vs. control, Time/73 h [4]: 94%

3,28-O-isostearylic acid diester of betulin [Betulin 3,28-O-isostearylic acid diester]
prevention of beetle feeding [6]: efficiently prevented beetle feeding | % Surface area of the leaves eaten [6]: 64%

C=C(C)[C@@H]1CC[C@]2(COC(C)=O)CC[C@]3(C)C(CCC4[C@@]5(C)CC[C@H](OC(C)=O)C(C)(C)C5CC[C@]43C)C12 (stereo partly drawn) [3,28-diacetoxy betulin]
% Surface area of the leaves eaten [6]: 96%

3,28-C18 alkylene succinic diester of betulin
Leaf mass eaten by the larvae vs. control, Time/0 h [4]: 100% | Leaf mass eaten by the larvae vs. control, Time/21 h [4]: 93% | Leaf mass eaten by the larvae vs. control, Time/43 h [4]: 90% | Leaf mass eaten by the larvae vs. control, Time/73 h [4]: 77%

C=C(C)[C@@H]1CC[C@]2(C(=O)O)CC[C@]3(C)C(CCC4[C@@]5(C)CC[C@H](O)C(C)(C)C5CC[C@]43C)C12 (stereo partly drawn) [Betulinic acid, betulinic acid]
ranking of snail test results [3]: Best results | Percentage of the leaf half treated with the test substance vs. total mass eaten [3]: 37.6% | Percentage of the control vs. total mass eaten [3]: 62.4% | Leaf mass eaten by the larvae vs. control, Time/0 h [4]: 100% | Leaf mass eaten by the larvae vs. control, Time/21 h [4]: 46% | Leaf mass eaten by the larvae vs. control, Time/43 h [4]: 67% | Leaf mass eaten by the larvae vs. control, Time/73 h [4]: 80% | antifeedant activity on the larvae [4]: clearly had antifeedant activities | weight development of the larvae [7]: lower than the initial weight

CC(=O)OCC12CCC(C3(C)CO3)C1C1CCC3C4(C)CCC(OC(C)=O)C(C)(C)C4CCC3(C)C1(C)CC2 (stereo not drawn) [Betulin 20,29-epoxy-3β,28-diacetate, reference compound]
% Surface area of the leaves eaten [6]: 50%

C=C(C)[C@@H]1CC[C@]2(CO)CC[C@]3(C)[C@H](CC[C@@H]4[C@@]5(C)CC[C@H](O)C(C)(C)[C@@H]5CC[C@]43C)[C@@H]12 [Betulin, lup-20(29)-ene-3β,28-diol]
decrease of feeding of larvae [1]: not observed | Percentage of the eaten relative mass of the leaf [1]: 64.2% | prevention of beetle feeding [6]: efficiently prevented beetle feeding | % Surface area of the leaves eaten [6]: 58% | prevention (decrease) of feeding [2]: approx. 47% | Percentage of the eaten relative mass of the leaf [2]: 40.7% | Percentage of the leaf half treated with the test substance vs. total mass eaten [3]: 22.5% | Percentage of the control vs. total mass eaten [3]: 77.5% | Leaf mass eaten by the larvae vs. control, Time/0 h [4]: 100% | Leaf mass eaten by the larvae vs. control, Time/21 h [4]: 101* % | Leaf mass eaten by the larvae vs. control, Time/43 h [4]: 193* % | Leaf mass eaten by the larvae vs. control, Time/73 h [4]: 88% | prevention of feeding ([5]; larvae): 78% | Percentage of the relative number of eaten cavities [5, 9]: 21.9%

28-C18 alkylene succinic ester of betulin
Leaf mass eaten by the larvae vs. control, Time/0 h [4]: 100% | Leaf mass eaten by the larvae vs. control, Time/21 h [4]: 103* % | Leaf mass eaten by the larvae vs. control, Time/43 h [4]: 82% | Leaf mass eaten by the larvae vs. control, Time/73 h [4]: 71% | antifeedant activity on the larvae [4]: clearly had antifeedant activities

From US20120035224A1, “Betulin derived compounds as anti-feedants for plant pests” (priority 2006, published 2012)
